Article PMC4806279, “Metabolism and Metabolic Inhibition of Xanthotoxol in Human Liver Microsomes” (Evidence-based Complementary and Alternative Medicine : eCAM, 2016)

Tests used:
cytochrome P450s (CYPs) = assay: Inhibition of xanthotoxol metabolite production in HLMs by a nonspecific CYP inhibitor; assay type: in vitro ADME, human; conditions: xanthotoxol as substrate, 500 μM ABT
Description: Inhibition study was conducted using the above incubation system consisting of liver microsomes, NADPH-generating system, probe substrate at the concentration of about K m value, and xanthotoxol (or the control inhibitor). The concentrations of positive inhibitors used were as follows: 10 μM furafylline for CYP1A2, 2.5 μM 8-methoxypsoralen for CYP2A6, 10 μM quercetin for CYP2C8, 10 μM sulfaphenazole for CYP2C9, 10 μM quinidine for CYP2D6, 50 μM clomethiazole for CYP2E1, 20 μM omeprazole for CYP2C19, 1 μM ketoconazole for CYP3A4, and 500 μM ABT for broad CYP450s. […]

CYP1A2 = target: T1, CYP1A2 (Homo sapiens, UniProt P05177); assay: Inhibition of phenacetin o-deethylation in human liver microsomes; assay type: in vitro ADME
T1 construct: The HLMs were prepared from eleven individual human donor livers; tissue Research Institute for Liver Disease Co. (Shanghai, China); host or cells: human liver microsomes, pool of eleven donors
T1 sequence (P05177 1-516): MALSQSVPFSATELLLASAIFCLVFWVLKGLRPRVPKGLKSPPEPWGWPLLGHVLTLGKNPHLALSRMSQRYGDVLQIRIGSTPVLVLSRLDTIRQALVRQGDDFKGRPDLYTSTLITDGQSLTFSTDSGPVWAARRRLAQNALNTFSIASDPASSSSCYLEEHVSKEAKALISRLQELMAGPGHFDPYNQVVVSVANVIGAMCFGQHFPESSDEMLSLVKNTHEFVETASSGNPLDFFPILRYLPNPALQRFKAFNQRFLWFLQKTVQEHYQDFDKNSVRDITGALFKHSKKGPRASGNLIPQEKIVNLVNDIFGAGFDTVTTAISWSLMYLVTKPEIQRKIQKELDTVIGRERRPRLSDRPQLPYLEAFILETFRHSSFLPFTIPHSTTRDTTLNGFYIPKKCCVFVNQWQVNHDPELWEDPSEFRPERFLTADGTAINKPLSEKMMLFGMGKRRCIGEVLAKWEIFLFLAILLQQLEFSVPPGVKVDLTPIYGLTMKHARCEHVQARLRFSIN
Description: (§1) Liver microsomes from human (HLMs) used in this study were provided by the Research Institute for Liver Disease Co. (Shanghai, China). The HLMs were prepared from eleven individual human donor livers. Protein concentration and microsomes activities of CYP2C19, CYP2A6, CYP2C8, CYP2D6, CYP1A2, CYP2C9, CYP2E1, and CYP3A4 had been previously characterized by the Research Institute for Liver Disease Co.
(§2) HLMs phenacetin o-deethylation, coumarin 7-hydroxylation, paclitaxel 6α-hydroxylation, diclofenac 4′-hydroxylation, dextromethorphan o-demethylation, chlorzoxazone 6-hydroxylation, testosterone 6β-hydroxylation, and S-mephenytoin 4′-hydroxylation activities were utilized as selective markers for CYP1A2, CYP2A6, CYP2C8, CYP2C9, CYP2D6, CYP2E1, CYP3A4, and CYP2C19.
(§3) The optimal conditions for microsomal incubation were described previously. The incubation mixture, with a total volume of 200 μL, consisted of 100 mM potassium phosphate buffer (pH 7.4), an NADPH-generating system (10 mM glucose 6-phosphate, 1 unit/mL of glucose 6-phosphate dehydrogenase, and 4 mM MgCl2), liver microsomes (0.3 mg/mL), or recombinant CYP450s (15 nM). […] After a 5 min preincubation at 37°C, the NADP^+ (1 mM, 20 μL) was added into the mixture to initiate the reaction. The reaction was terminated by the addition of methanol (200 μL) with internal standard. The mixture was kept on ice until it was centrifuged at 20 000 ×g for 10 min at 4°C. Aliquots of supernatants were stored at −40°C until analysis. Control incubations without NADPH or without substrate or without microsomes were carried out to ensure that the formation of metabolites was microsomes and NADPH dependent. All incubations throughout the study were carried out in at least three independent experiments with standard deviations (SD) generally below 10%.
(§4) Inhibition study was conducted using the above incubation system consisting of liver microsomes, NADPH-generating system, probe substrate at the concentration of about K m value, and xanthotoxol (or the control inhibitor). […]

CYP3A4 = target: T2, CYP3A4 (Homo sapiens, UniProt P08684); assay: Inhibition of testosterone 6β-hydroxylation in human liver microsomes; assay type: in vitro ADME
T2 construct: The HLMs were prepared from eleven individual human donor livers; tissue Research Institute for Liver Disease Co. (Shanghai, China); host or cells: human liver microsomes, pool of eleven donors
T2 sequence (P08684 whole entry): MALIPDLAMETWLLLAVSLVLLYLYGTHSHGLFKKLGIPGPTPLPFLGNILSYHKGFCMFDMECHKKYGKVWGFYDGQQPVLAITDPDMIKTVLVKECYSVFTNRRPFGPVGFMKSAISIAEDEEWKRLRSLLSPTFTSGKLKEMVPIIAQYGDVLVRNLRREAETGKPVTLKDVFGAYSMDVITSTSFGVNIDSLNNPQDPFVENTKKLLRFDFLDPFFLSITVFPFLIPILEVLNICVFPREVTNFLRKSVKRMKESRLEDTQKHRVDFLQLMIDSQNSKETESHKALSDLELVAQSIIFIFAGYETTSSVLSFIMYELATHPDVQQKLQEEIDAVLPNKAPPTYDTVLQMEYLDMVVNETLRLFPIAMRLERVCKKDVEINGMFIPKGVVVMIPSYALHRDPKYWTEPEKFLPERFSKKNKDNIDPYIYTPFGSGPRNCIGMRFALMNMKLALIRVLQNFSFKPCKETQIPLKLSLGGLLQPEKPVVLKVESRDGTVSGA
Description: as §1, §2, §3, §4

CYP2E1 [1] = target: T3, CYP2E1 (Homo sapiens, UniProt P05181); assay type: in vitro ADME; conditions: recombinant enzyme, 30 min, 10 mM, pH 7.4
T3 construct: The HLMs were prepared from eleven individual human donor livers; tissue Research Institute for Liver Disease Co. (Shanghai, China); host or cells: human liver microsomes, pool of eleven donors
T3 sequence (P05181 whole entry): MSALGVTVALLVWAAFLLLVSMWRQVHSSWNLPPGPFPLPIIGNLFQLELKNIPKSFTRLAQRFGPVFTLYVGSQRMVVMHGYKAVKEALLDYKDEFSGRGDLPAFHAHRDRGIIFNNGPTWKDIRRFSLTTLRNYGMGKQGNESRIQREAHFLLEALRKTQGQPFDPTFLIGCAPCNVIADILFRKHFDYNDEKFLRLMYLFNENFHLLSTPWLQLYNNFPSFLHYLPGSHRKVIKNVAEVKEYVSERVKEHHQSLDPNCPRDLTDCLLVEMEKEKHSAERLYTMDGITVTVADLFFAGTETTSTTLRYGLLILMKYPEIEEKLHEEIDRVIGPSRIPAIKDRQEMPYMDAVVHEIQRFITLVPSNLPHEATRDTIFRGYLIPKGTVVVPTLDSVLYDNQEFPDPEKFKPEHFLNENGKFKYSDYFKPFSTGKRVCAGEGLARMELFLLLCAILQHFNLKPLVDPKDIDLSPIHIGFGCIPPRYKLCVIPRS
Description: as §3
The enzymes involved in the xanthotoxol metabolism were investigated using cDNA-expressed human P450 isoforms including CYP3A4, CYP2D6, CYP2E1, CYP2C9, CYP2C19, and CYP1A2. The incubation for each isoenzyme was carried out as described for the liver microsomal study. […]

[2] = assay type: in vitro ADME; conditions: human
Excerpt: The following equations were used to predict the xanthotoxol clearance in human:(2) CLint in vitro=Vmax/Km,CLint in vivo=CLint in vitro·SF,CLH=QH·fu·CLint in vivo/QH+fu·CLint in vivo, where SF (scaling factor) represents the milligrams of microsomal protein per gram of liver multiplied by the grams of liver weight; CLint is the intrinsic metabolic clearance; CLH is hepatic clearance; f u is the free fraction in blood (there are no data of xanthotoxol; here f u was arbitrarily proposed to be 1); Q H is the hepatic blood flow. The hepatic clearance of xanthotoxol was calculated using (2), and physiological parameters in human were described as follows: microsomal protein per gram of liver, liver weight per kilogram of body, and liver blood flow for human were 48.8 mg, 25.7 g, and 20.7 mL·min^−1·kg^−1, respectively.

in vitro = in vitro ADME; conditions: human
Description: as §3
To estimate kinetic parameters of xanthotoxol and make sure that the formations of metabolites were in the linear range of both reaction time and the concentration of microsomes, xanthotoxol (0.25–200 μM) was incubated with pooled HLMs for 30 min. Reaction velocities and substrate concentrations were used to calculate the apparent K m and V max values according to nonlinear regression from the Michaelis-Menten equation (see (1)). CLint was calculated as V max/K m. In addition, the result was graphically represented on Eadie-Hofstee plots (velocities versus ratios of velocities to substrate concentrations) to determine whether the metabolism was monophasic or biphasic. Consider(1) V=Vmax·S/Km+S, where V max was the maximum reaction velocity, K m was the Michaelis constant that represented the substrate concentration at which the velocity was half of V max, V was the reaction velocity, and [S] was the substrate concentration.

CYP2E1 [3] = target: T3, CYP2E1; assay type: in vitro ADME; conditions: 100 μM, pH 7.4
Description: as §1, §2, §3, §4

CYP2C8 = target: T4, CYP2C8 (Homo sapiens, UniProt P10632); assay type: in vitro ADME; conditions: 100 μM, pH 7.4
T4 construct: The HLMs were prepared from eleven individual human donor livers; tissue Research Institute for Liver Disease Co. (Shanghai, China); host or cells: human liver microsomes, pool of eleven donors
T4 sequence (P10632 1-490): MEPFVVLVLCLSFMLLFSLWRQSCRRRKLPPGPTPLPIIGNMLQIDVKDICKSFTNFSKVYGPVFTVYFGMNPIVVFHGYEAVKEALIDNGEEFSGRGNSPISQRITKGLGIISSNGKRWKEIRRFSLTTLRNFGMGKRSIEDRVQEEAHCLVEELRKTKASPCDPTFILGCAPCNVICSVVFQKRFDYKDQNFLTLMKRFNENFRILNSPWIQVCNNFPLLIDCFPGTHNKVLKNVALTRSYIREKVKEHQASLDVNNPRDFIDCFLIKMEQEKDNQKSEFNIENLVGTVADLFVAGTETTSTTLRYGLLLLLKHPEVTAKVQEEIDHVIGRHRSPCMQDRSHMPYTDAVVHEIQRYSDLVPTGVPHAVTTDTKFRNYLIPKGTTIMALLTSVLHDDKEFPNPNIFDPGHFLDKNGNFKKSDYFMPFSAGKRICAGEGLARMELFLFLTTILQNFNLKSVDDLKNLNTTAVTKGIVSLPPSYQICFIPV
Description: as §1, §2, §3, §4

CYP2A6 = target: T5, CYP2A6 (Homo sapiens, UniProt P11509); assay type: in vitro ADME; conditions: 100 μM, pH 7.4
T5 construct: The HLMs were prepared from eleven individual human donor livers; tissue Research Institute for Liver Disease Co. (Shanghai, China); host or cells: human liver microsomes, pool of eleven donors
T5 sequence (P11509 1-494): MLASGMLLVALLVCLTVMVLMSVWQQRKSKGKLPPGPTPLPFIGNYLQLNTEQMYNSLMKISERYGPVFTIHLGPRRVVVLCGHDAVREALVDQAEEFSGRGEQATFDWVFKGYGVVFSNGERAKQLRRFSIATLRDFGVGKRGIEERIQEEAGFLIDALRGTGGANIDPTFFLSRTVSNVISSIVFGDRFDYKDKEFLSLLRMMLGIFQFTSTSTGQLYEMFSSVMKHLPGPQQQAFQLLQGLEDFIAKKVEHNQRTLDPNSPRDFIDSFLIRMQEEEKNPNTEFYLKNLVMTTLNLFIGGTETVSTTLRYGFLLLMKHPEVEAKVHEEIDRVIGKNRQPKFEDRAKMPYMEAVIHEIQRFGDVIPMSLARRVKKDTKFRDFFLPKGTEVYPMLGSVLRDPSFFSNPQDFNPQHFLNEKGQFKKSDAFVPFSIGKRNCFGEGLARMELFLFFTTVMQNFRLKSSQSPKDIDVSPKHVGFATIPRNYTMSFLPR
Description: as §1, §2, §3, §4

[4] = HLMs, Lineweaver-Burk and Dixon plots

| SMILES | inhibition against metabolite production (cytochrome P450s (CYPs)) | IC50 (CYP1A2) [µM] | Ki (CYP1A2) [µM] | type of inhibition of CYP1A2 (CYP1A2; [4]) | IC50 (CYP3A4) [µM] | Ki (CYP3A4) [µM] | type of inhibition of CYP3A4 (CYP3A4; [4]) | amount of metabolite M generated compared to CYP1A2 level (CYP2E1 [1]) [%] | hepatic clearance (CLH) [2] | percentage of CLH versus hepatic blood flow (QH)% [2] [%] | clearance classification ([2]; microsomes) | Vmax of xanthotoxol metabolism (in vitro; 30 min, pH 7.4) [nmol/min/mg] | Intrinsic clearance (CLint) (in vitro; microsomes, pH 7.4) [µL/min/mg] | microsomal CLint (in vitro; microsomes, pH 7.4, Intrinsic clearance (CLint)) [µL/min/mg] | Km at 30 min (in vitro; pH 7.4) [µM] | inhibited the activity of CYP2E1 (CYP2E1 [3]) [%] | inhibited the activity of CYP2C8 (CYP2C8) [%] | inhibited the activity of CYP2A6 (CYP2A6) [%] |
| --- | --- | --- | --- | --- | --- | --- | --- | --- | --- | --- | --- | --- | --- | --- | --- | --- | --- | --- |
| Nn1nnc2ccccc21 [Aminobenzotriazole (ABT), 1-aminobenzotriazole] | potent inhibition |  |  |  |  |  |  |  |  |  |  |  |  |  |  |  |  |  |
| O=c1ccc2cc3ccoc3c(O)c2o1 [xanthotoxol, Xanthotoxol] |  | 27.8 | 21.1 | noncompetitive | 7.43 | 2.22 | noncompetitive | 7.3 | 15.91 mL·min^−1·kg^−1 body weight | 76.8 | high-clearance drug | 0.55 | 65 | 60 | 8.46 | 25.9 | 52.1 | 82.1 |
